Reference: ChEMBL document CHEMBL3045768, “Potential anti-inflammatory activity and ulcerogenicity study of some novel pyrimido[4,5:4,5]pyrimido[1,6-a]azepine derivatives” (Med Chem Res, 2012)

Legend:
Rattus norvegicus [1] = assay: Anti-inflammatory activity inRattus norvegicus albino (rat) assessed as inhibition of carrageenan-induced paw edema at 20 umol/kg, ip administered 1 hr before challenge measured after 1 hr; assay type: functional
Rattus norvegicus [2] = assay: Anti-inflammatory activity inRattus norvegicus albino (rat) assessed as inhibition of carrageenan-induced paw edema at 20 umol/kg, ip administered 1 hr before challenge measured after 3 hr; assay type: functional
Rattus norvegicus [3] = assay: Anti-inflammatory activity inRattus norvegicus albino (rat) assessed as inhibition of carrageenan-induced paw edema at 20 umol/kg, ip administered 1 hr before challenge measured after 2 hr; assay type: functional
Rattus norvegicus [4] = assay: Toxicity inRattus norvegicus albino (rat) assessed as ulcerogenicity at 20 umol/kg, po qd for 3 days; assay type: organism-based; conditions: in vivo, 72 h
Rattus norvegicus [5] = assay: Anti-inflammatory activity inRattus norvegicus albino (rat) assessed as inhibition of carrageenan-induced paw edema at 20 umol/kg, ip administered 1 hr before challenge measured after 3 hr relative to diclofenac-sodium; assay type: functional
Rattus norvegicus [6] = assay: Anti-inflammatory activity inRattus norvegicus albino (rat) assessed as inhibition of carrageenan-induced paw edema at 18 umol/kg, ip administered 1 hr before challenge measured after 3 hr; assay type: functional
Rattus norvegicus [7] = assay: Anti-inflammatory activity inRattus norvegicus albino (rat) assessed as inhibition of carrageenan-induced paw edema at 12 umol/kg, ip administered 1 hr before challenge measured after 3 hr; assay type: functional
Rattus norvegicus [8] = assay: Anti-inflammatory activity in ip dosedRattus norvegicus albino (rat) assessed as inhibition of carrageenan-induced paw edema administered 1 hr before challenge measured after 3 hr; assay type: functional, organism-based
Rattus norvegicus [9] = assay: Anti-inflammatory activity inRattus norvegicus albino (rat) assessed as inhibition of carrageenan-induced paw edema at 24 umol/kg, ip administered 1 hr before challenge measured after 3 hr; assay type: functional

Compound | inhibition in vivo at 20 µmol/kg (Rattus norvegicus [1]) [%] | inhibition in vivo at 20 µmol/kg (Rattus norvegicus [2]) [%] | inhibition in vivo at 20 µmol/kg (Rattus norvegicus [3]) [%] | UI (Rattus norvegicus [4]) | inhibition in vivo at 20 µmol/kg (Rattus norvegicus [5]) [%] | inhibition in vivo at 18 µmol/kg (Rattus norvegicus [6]) [%] | inhibition in vivo at 12 µmol/kg (Rattus norvegicus [7]) [%] | IC50 (Rattus norvegicus [8]) [µmol/kg] | inhibition in vivo at 24 µmol/kg (Rattus norvegicus [9]) [%]
O=C(SCc1nc2c(c(=O)[nH]1)C1C(N3CCCC3)CCCCN1C(=O)N2c1ccccc1)c1ccccc1O (stereo not drawn) | 29.8 | 49.7 | 36.9 | 3.4 | 56.4 | – | – | – | –
O=C1N(c2ccccc2)c2nc(-c3ccccc3O)[nH]c(=O)c2C2C(N3CCCC3)CCCCN12 (stereo not drawn) | 21.9 | 37.2 | 27.9 | – | 42.5 | – | – | – | –
O=C1N(c2ccccc2)c2nc[nH]c(=O)c2C2C(N3CCCC3)CCCCN12 (stereo not drawn) | 11 | 33.1 | 26.8 | – | 37.8 | – | – | – | –
O=C1N(c2ccccc2)c2nc(CN3CCCCC3)[nH]c(=O)c2C2C(N3CCCC3)CCCCN12 (stereo not drawn) | 28 | 42.4 | 37.2 | – | 48.4 | – | – | – | –
O=C1N(c2ccccc2)c2ncnc(N3CCCCC3)c2C2C(N3CCCC3)CCCCN12 (stereo not drawn) | 10.3 | 27.9 | 17.4 | – | 31.9 | – | – | – | –
O=C1N(c2ccccc2)c2ncn(CN3CCOCC3)c(=O)c2C2C(N3CCCC3)CCCCN12 (stereo not drawn) | 13.1 | 30.1 | 18.5 | – | 34.3 | – | – | – | –
O=C([O-])Cc1ccccc1Nc1c(Cl)cccc1Cl.[Na+] [DICLOFENAC SODIUM] | 68.6 | 87.6 | 83.5 | 9 | – | 79.3 | 59.5 | 7.26 | 88.2
O=C(O)CSCc1nc2c(c(=O)[nH]1)C1C(N3CCCC3)CCCCN1C(=O)N2c1ccccc1 (stereo not drawn) | 66.4 | 85.6 | 73.2 | 2.7 | 97.7 | 69.3 | 51.2 | 11.73 | 89.6
O=C1N(c2ccccc2)c2ncnc(N3CCOCC3)c2C2C(N3CCCC3)CCCCN12 (stereo not drawn) | 17.7 | 33.8 | 21.2 | – | 38.6 | – | – | – | –
O=C1N(c2ccccc2)c2ncn(CN3CCCCC3)c(=O)c2C2C(N3CCCC3)CCCCN12 (stereo not drawn) | 11.9 | 29.3 | 16.4 | – | 33.4 | – | – | – | –
Nc1ncnc2c1C1C(N3CCCC3)CCCCN1C(=O)N2c1ccccc1 (stereo not drawn) | 17.6 | 33.7 | 22.8 | – | 38.5 | – | – | – | –
O=C1N(c2ccccc2)c2nc(CCN3CCCCC3)[nH]c(=O)c2C2C(N3CCCC3)CCCCN12 (stereo not drawn) | 26.8 | 41.4 | 35.7 | – | 47.3 | – | – | – | –
O=C1N(c2ccccc2)c2nc(CN3CCCC3)[nH]c(=O)c2C2C(N3CCCC3)CCCCN12 (stereo not drawn) | 36.2 | 48.7 | 42.2 | – | 53.6 | – | – | – | –
N#CC1=C(NC(=O)Cc2ccccc2Nc2c(Cl)cccc2Cl)N(c2ccccc2)C(=O)N2CCCCC(N3CCCC3)C12 (stereo not drawn) | 31.9 | 67.2 | 48.5 | 4.1 | 76.7 | – | – | – | –
O=C1N(c2ccccc2)c2nc(CN3CCOCC3)[nH]c(=O)c2C2C(N3CCCC3)CCCCN12 (stereo not drawn) | 51.9 | 62.4 | 57.5 | 4.3 | 71.2 | – | – | – | –
O=C1N(c2ccccc2)c2nc(CCN3CCCC3)[nH]c(=O)c2C2C(N3CCCC3)CCCCN12 (stereo not drawn) | 20.5 | 44.3 | 32.5 | – | 50.6 | – | – | – | –
O=C1N(c2ccccc2)c2ncn(CN3CCCC3)c(=O)c2C2C(N3CCCC3)CCCCN12 (stereo not drawn) | 16.2 | 32.6 | 22.3 | – | 37.2 | – | – | – | –
O=C(Cc1ccccc1Nc1c(Cl)cccc1Cl)SCc1nc2c(c(=O)[nH]1)C1C(N3CCCC3)CCCCN1C(=O)N2c1ccccc1 (stereo not drawn) | 33.1 | 53.1 | 45.8 | 2.6 | 61.3 | – | – | – | –
N#CC1=C(NC(=O)c2ccccc2O)N(c2ccccc2)C(=O)N2CCCCC(N3CCCC3)C12 (stereo not drawn) | 44.7 | 65.4 | 53.8 | 3.4 | 74.7 | – | – | – | –
O=C1N(c2ccccc2)c2ncnc(N3CCCC3)c2C2C(N3CCCC3)CCCCN12 (stereo not drawn) | 9.5 | 27.3 | 14.8 | – | 31.1 | – | – | – | –
O=C1N(c2ccccc2)c2nc(CCN3CCOCC3)[nH]c(=O)c2C2C(N3CCCC3)CCCCN12 (stereo not drawn) | 38.8 | 52.5 | 52.2 | 3.4 | 59.9 | – | – | – | –
O=C1N(c2ccccc2)c2nc(Cc3ccccc3Nc3c(Cl)cccc3Cl)[nH]c(=O)c2C2C(N3CCCC3)CCCCN12 (stereo not drawn) | 29.7 | 45.3 | 35.2 | – | 51.7 | – | – | – | –
